A melting point compilation (Tetko et al.; mined from patent text by program, amines drawn as free bases though some values may be those of a salt)

Compared with Cc1ccc(S(=O)(=O)OCC(O)Cc2cc(Cl)c3ccccc3c2OCc2ccccc2)cc1 (configuration not stated), O=C(OCc1ccccc1)c1ccc2cc(OCc3ccccc3)ccc2c1 is higher in melting point: 85 to 87 °C for the first, 97 to 98 °C for the second.

First: O=C(C=CC[C@H]1NC(=O)[C@@H]1N1C(=O)c2ccccc2C1=O)OCc1ccccc1
Second: CC(C)(C)[C@H](NC(=O)CCC1c2ccccc2-c2ccccc21)C(=O)O
The melting point of the first is higher: 115 to 120 °C for the first, 79 to 83 °C for the second.

First: FC(F)C(F)(F)Sc1nc(-c2ccccc2)c(-c2ccccc2)[nH]1
Second: Cc1[nH]c(-c2ccccc2)c2c1C(c1ccccc1)=NCC(=O)N2
The melting point of the first is lower: 212 to 213 °C for the first, 310 to 312 °C for the second.

First: Cc1ccnc(NC(=O)c2c(-c3ccc(F)cc3)c(-c3ccc(F)cc3)cn2C(C)C)n1
Second: CC(C)n1cc(-c2nc(C#N)c(N)nc2-c2ccc(F)c(F)c2)ccc1=O
The melting point of the first is lower: 165 to 166 °C for the first, 180 °C for the second.

First: COC(=O)c1c([N+](=O)[O-])cc(OC)c(OC)c1OC
Second: COc1ccc(C=O)c(Cl)c1OC(C)=O
The melting point of the first is higher: 74 to 76 °C for the first, 48 to 50 °C for the second.

Compared with O=C(c1ccc2[nH]cnc2c1)N1CCC[C@H](c2nc(-c3ccc(F)cc3)no2)C1, CON(C)C(=O)/C=C/c1c(C2CC2)nc2ccccc2c1-c1ccc(F)cc1 is higher in melting point: 110 to 115 °C for the first, 141 °C for the second.

Compared with CCOc1c(C=NOCc2ccccc2)c(=O)n(C)c(=O)n1C, CC(=O)c1cn(C(=O)OC(C)(C)C)c2ccc(OCc3ccccc3)cc12 is higher in melting point: 93 to 94 °C for the first, 114 to 116 °C for the second.

First: Cc1ccc(Oc2cccc(C#CC(C)N(O)C(N)=O)c2)cc1F (configuration not stated)
Second: CCOC(=O)c1ccc2cc(Oc3cccc([N+](=O)[O-])c3)ccn2c1=O
The melting point of the first is lower: 128 to 130 °C for the first, 161 to 163 °C for the second.

Compared with C(=Cc1ccccc1)CN1CCN(C(c2ccccc2)c2ccccc2)CC1, O=C(OCC1CCc2c(O)cccc2C1)N(c1ccccc1)c1ccccc1 (configuration not stated) is lower in melting point: 110 °C for the first, 96 to 98 °C for the second.

First: CN(C)S(=O)(=O)c1cccc(S(N)(=O)=O)c1
Second: CN(C)S(=O)(=O)c1cc(C(=O)O)cc([N+](=O)[O-])c1Oc1ccccc1
The melting point of the first is lower: 101 to 106 °C for the first, 224 to 226 °C for the second.

Compared with CCOc1cc(CCCOc2c(CC(=O)O)cccc2OC)n(Cc2ccc(Cl)cc2Cl)n1, CCN(CC)c1ccc(-c2cc(-c3ccc(C(=O)O)cc3)ccc2CCCN)cc1C(C)(C)C is higher in melting point: 109 to 110 °C for the first, 272 °C for the second.

First: Cc1cn(C(C)C(=O)N2CCOCC2)nc1-c1ccccc1 (configuration not stated)
Second: Cn1cc2c(n1)-c1c(Cc3ccccc3)sc(C(N)=O)c1CC2
The melting point of the first is lower: 84 to 96 °C for the first, 212 to 213 °C for the second.

First: CCOC(=O)c1cc2cc(-c3ccccc3)ccc2[nH]1
Second: CCOc1cccc(-c2cn(C)cc(-c3ccccc3)c2=O)c1
The melting point of the first is higher: 173 to 174 °C for the first, 133 to 135 °C for the second.

First: CN1CCCN(c2cc3ccccc3c(=O)[nH]2)CC1
Second: CN1CCC(=C2c3ccccc3CCc3ccc(CO)cc32)CC1
The melting point of the first is lower: 171 to 172 °C for the first, 178 to 181 °C for the second.

Compared with O=C1COc2ccc(C3=Nc4ccccc4SC3c3ccccc3)cc2N1 (configuration not stated), O=C(NN=Cc1cccc2ccccc12)c1cc2ccccc2cc1O is lower in melting point: 215 to 217 °C for the first, 214 °C for the second.

Compared with COC(=O)N(C(C)C)C1C=C(C)CC=C1C(=O)c1ccc(F)cc1 (configuration not stated), CCOC(=O)c1cccc(NC(=O)C=Cc2cc(C(C)C)c(C(C)C)o2)c1 is higher in melting point: 98 to 102 °C for the first, 160 to 161 °C for the second.

First: COc1ccc2[nH]c3c(C)nc4c(c3c2c1)C(=O)CC(C)(C)C4
Second: COc1cc(OC)c2c(=O)[nH]c(-c3cccc(OCCO)c3)nc2c1
The melting point of the first is lower: 241 to 243 °C for the first, 245 to 246 °C for the second.

Compared with CCC(=O)c1ccc(S(=O)(=O)c2ccccc2)cc1, O=S(=O)(NN=C(Cl)c1cc(Cl)ccc1Cl)c1ccccc1 is higher in melting point: 83 to 84 °C for the first, 133 to 135 °C for the second.

Compared with CC1CCCC(C)N1Cc1ccc(NC(=O)C#Cc2ccc(-c3ccc(Cl)cc3)cc2)cc1 (configuration not stated), O=C(CN1CCCCC1)Nc1ccc(-c2cc(-c3c[nH]nc3-c3ccccn3)ccn2)cc1 is higher in melting point: 158 to 163 °C for the first, 180 °C for the second.

First: COC[C@H]1CN(c2ccc(CCC[C@@H](C)O)cc2)C(=O)O1
Second: CCCCCCc1ccc(C#Cc2ccc(C=O)cc2)cc1
The melting point of the first is lower: 65 °C for the first, 67 °C for the second.

First: COC(=O)c1cccc(Nc2nc(N)c(C(=O)c3ccccc3OC)s2)c1
Second: COc1ccc(Nc2cc(-c3ccccc3)nc(N3CCC(O)CC3)n2)cc1Cl
The melting point of the first is higher: 214 to 215 °C for the first, 188 to 191 °C for the second.

Compared with CSc1ncccc1NC(=O)CCCCCSc1nc2ccccc2[nH]1, CSc1nc(=O)n(Cc2ccccc2)c2nc[nH]c12 is higher in melting point: 121 to 123 °C for the first, 215 to 216 °C for the second.

First: CC(C)(O)CON1C(C)(C)CC(O)CC1(C)C
Second: CC(C)(C)OC(=O)N1CCCc2onc(O)c2C1
The melting point of the first is lower: 127 to 131 °C for the first, 170 to 171 °C for the second.

First: O=C(NC(=O)c1cccnc1)NC1CCN(Cc2ccc3ncccc3c2)CC1
Second: O=C(Nc1ccc(C(CC2CCCC2)C(=O)Nc2nccs2)cc1)c1cccnc1 (configuration not stated)
The melting point of the first is lower: 196 to 198 °C for the first, 240 to 242 °C for the second.

First: O=C(NCCO)c1cnc(C(=O)NCCO)s1
Second: CCCCNC(=O)Nc1ccccc1NC(=O)NCCCC
The melting point of the first is higher: 182 to 184 °C for the first, 163 to 164 °C for the second.

Compared with COc1ccc2cc(-c3ccc(C(=O)O)cc3)ccc2c1, COc1ccc(C(=O)c2cc(C(=O)c3ccc(OC)cc3)cc(C(=O)c3ccc(OC)cc3)c2)cc1 is lower in melting point: 288 to 289 °C for the first, 179 to 183 °C for the second.

Compared with Cc1ccc(NC(=O)NCc2cccc3c2C(=O)N(C2CCC(=O)NC2=O)C3=O)cc1C (configuration not stated), CN1C(=O)CC[C@]2(C)c3ccc(NC(=O)c4cccc([N+](=O)[O-])c4)cc3CC[C@@H]12 is higher in melting point: 222 to 224 °C for the first, 240 to 242 °C for the second.

First: C[C@@H](O)[C@H]1C(=O)N([Si](C)(C)C(C)(C)C)[C@@H]1CC(=O)[Si](C)(C)C
Second: CC(C)(C)N1CC(=O)Nc2ccc(C#C[Si](C)(C)C)cc2C1=O
The melting point of the first is lower: 82 to 84 °C for the first, 243 to 244 °C for the second.

First: O=C(O)[C@@H]1CS[C@@H](CS)C1
Second: CC12CCC(O)CC1CCC1C2CCC2(C)C(C=NNC(=N)N)CCC12O (configuration not stated)
The melting point of the first is lower: 54.3 to 55.9 °C for the first, 163 to 165 °C for the second.

Compared with CC(C)(C)NC1CCCCC1O (configuration not stated), CC(O)C1CCC2C3C=CC4=CC(=O)C5OC5C4(C)C3CCC12C (configuration not stated) is higher in melting point: 42 to 44 °C for the first, 206 to 207 °C for the second.

First: CCOC(=O)c1c(C)nc2c(cnn2CCOC)c1N
Second: CCOC(=O)C(=CNc1ncnc2ccccc12)C(=O)OCC
The melting point of the first is lower: 82 to 85 °C for the first, 115 to 117 °C for the second.

First: Cc1cc(SCc2sc(-c3ccc(C(F)(F)F)c(F)c3)nc2C)ccc1OCC(=O)O
Second: COc1ccc(CNc2nc(NCc3ccc(C(O)C(F)(F)F)cc3)nc3ncccc23)cc1OC (configuration not stated)
The melting point of the first is lower: < 50 °C for the first, 121 to 122 °C for the second.

Compared with CN(C(=O)C(F)(F)F)c1cnn(-c2cccc(C(F)(F)F)c2)c(=O)c1-c1cccc(C(F)(F)F)c1, CC(C)(N)c1ccc(-c2nc(Nc3cccc(F)c3)ncc2C#N)cc1 is higher in melting point: 122 °C for the first, 209 °C for the second.

Compared with CCn1c(=O)c2[nH]c(/C=C/c3ccc(OC)c(C)c3C)nc2n(CC)c1=O, CCC=CCn1c(C)c(C)c2cnnc(OCc3ccccc3)c21 is lower in melting point: > 280 °C for the first, 92 to 93 °C for the second.

Compared with O=C1NC(=O)C(Cc2ccc(OCCON=Cc3cncc(-c4ccccc4)c3)cc2)S1 (configuration not stated), Cc1oc(-c2ccccc2)nc1COc1ccc(CCl)cc1 is lower in melting point: 160 to 161 °C for the first, 108 to 109 °C for the second.

Going from CCOc1ccc(NC=C(C#N)C(=O)Nc2cc(OC)c(Cl)cc2Cl)cc1Br to COC(=O)CCC#Cc1cc(Cl)ccc1NS(=O)(=O)c1cccc(C)c1, the melting point falls from > 250 °C to 69 °C.

First: CCOC(=O)CCc1cc(C(=O)c2ccc(C(=O)OCC)cc2)ccc1O
Second: CCCCCCCCCCOC(=O)C1=C(C)NC(N)=C(C(=O)OCC)C1c1cccc([N+](=O)[O-])c1 (configuration not stated)
The melting point of the first is lower: 70 to 71 °C for the first, 190 to 191 °C for the second.

First: CSC(=C[N+](=O)[O-])NCCCn1cc(C2=C(c3cn(C)c4ccccc34)C(=O)NC2=O)c2ccccc21
Second: CN1Cc2ccccc2C(=O)c2cc(CC(=O)O)cc([N+](=O)[O-])c21
The melting point of the first is lower: 144 to 146 °C for the first, 184 to 186 °C for the second.

Compared with CC(Cc1nc(-c2ccccc2)nc2ccccc12)C(=O)O (configuration not stated), COC(OC)c1cccc(NCc2ccccc2)c1 is lower in melting point: 180 °C for the first, 55 to 56 °C for the second.

Compared with CC(=NNc1ccc(C2=NNC(=O)CC2C)cc1)c1cc(O)cc(O)c1 (configuration not stated), COc1ccc(Nc2ncc3ccc(=O)n(C(C)C)c3n2)cc1 is higher in melting point: 162 to 166 °C for the first, 170 °C for the second.

First: Cc1nc2c3c(c(CO)cn2c1C)CCC(c1ccccc1)C3 (configuration not stated)
Second: Cc1c(C)c2c(c(C)c1OCc1ccccc1)CCC(C)(C(=O)O)O2 (configuration not stated)
The melting point of the first is higher: 290 to 292 °C for the first, 154 to 155 °C for the second.

First: CCc1cc(C)cc(CC)c1C1=C(OCc2ccccc2)C2CC(C=CC(C)=O)CC2C1=O (configuration not stated)
Second: CCNc1ccc(SSc2ccc(NCC)cc2C(=O)NC(C(=O)O)C(C)CC)c(C(=O)NC(C(=O)O)C(C)CC)c1 (configuration not stated)
The melting point of the first is lower: 60 °C for the first, 97 to 100 °C for the second.

First: COc1ccccc1Oc1c(Cl)nc(-c2ccccn2)nc1NS(=O)(=O)c1ccc(C(C)(C)C)cc1
Second: CC(C)(C)C(=O)c1c[nH]c2ncc(-n3ccc4ccccc43)nc12
The melting point of the first is lower: 122 to 123 °C for the first, 205 to 207 °C for the second.

O=Cc1cccn1-c1ccc2ccc3[nH]c(=O)c(=O)[nH]c3c2c1 and CCN1CCN(Cc2ccc(CCn3cnc4cc(-c5ccc(Cl)cc5)sc4c3=O)cc2)C(=O)C1=O cannot be ordered by melting point: > 250 °C for the first, 285 to 288 °C for the second.

Compared with Cc1cc(Nc2cc(F)c(F)cc2C(=O)O)n(-c2ccccn2)n1, C[C@@H](NC(=O)c1cnc(-c2ccc(Cl)cc2)s1)[C@](O)(Cn1cncn1)c1ccc(F)cc1F is lower in melting point: 247 to 248 °C for the first, 194 to 195 °C for the second.

First: O=C(Nc1cccc(F)c1)NN1CC=CCC1
Second: ClCc1coc(-c2cc3ccccc3o2)n1
The melting point of the first is higher: 136 to 138 °C for the first, 133 to 134 °C for the second.

First: O=c1oc2cc(O)cc(O)c2c(O)c1C1c2ccccc2Oc2c1c(=O)oc1cc(O)cc(O)c21 (configuration not stated)
Second: Cn1cc(-c2cccc(N3CCc4c(cc5n4CCCC5)C3=O)c2CO)cc(Nc2ccc(C3CNC3)cn2)c1=O
The melting point of the first is higher: > 300 °C for the first, 227 to 229 °C for the second.

First: CCCCOC(=O)C(N)c1ccc(OCC(O)CNC(C)C)nc1 (configuration not stated)
Second: CCOC(=O)c1cn(C2CC2)c2nc(N3CCC(n4ccnn4)CC3)c(F)cc2c1=O
The melting point of the first is lower: 85 to 87 °C for the first, 213 to 214 °C for the second.

Cc1ccc(N(C=C(C#N)C#N)N=C(C#N)C#N)cc1 showed a melting point of 168 to 169 °C.
